Reference: EPA's ToxValDB 9.5 (doi:10.2903/j.efsa.2006.54)

Key:
[1] = tested on: Aphidius rhopalosiphi; test: LR50; higher = less toxic; conditions: not reported; mortality
[2] = tested on: Typhlodromus pyri; conditions: not reported; reproduction
[3] = tested on: Coturnix coturnix
[4] = tested on: Anatidae; conditions: short-term; oral; feed; mortality
[5] = tested on: Oncorhynchus mykiss
[6] = tested on: Tagia sp.
[7] = tested on: Canidae; conditions: chronic; duration: 2 years; oral; Dog Other; clinical chemistry
[8] = tested on: Rattus norvegicus
[9] = tested on: Daphnia magna; conditions: chronic/long-term; duration: 21 days; reproduction
[10] = tested on: Apis mellifera; conditions: acute, mortality

`CCOP(=O)=O.CCOP(=O)=O.CCOP(=O)=O.[Al+3]` [Fosetyl aluminum] showed an LR50 [1] of over 64000 g/ha, an LEL [2] of 15000 g/ha and an LD50 ([3]; acute, oral, mortality) of 5000 mg/kg. The NOEC ([3]; reproduction developmental) was 216 mg/kg-day, the LD50 (acute, mortality) was over 7080 mg/kg and the NOEC (reproductive, oral, feed) was 439 mg/kg-day. It also gave an LC50 [4] of over 3540 mg/kg-day, an LC50 ([5]; acute, duration: 96 hours, mortality) of over 60 µg/mL and an NOEC ([5]; chronic/long-term, duration: 28 days, growth) of 100 mg/L. For the same compound, the LC50 ([6]; acute, mortality) was over 1000 mg/kg, the NOEC ([6]; chronic/long-term, reproduction) was 1670 mg/kg and the NOAEL [7] was 300 mg/kg-day. For the same compound, the NOAEL ([8]; chronic, duration: 2 years, oral, clinical chemistry) was 300 mg/kg-day, the NOAEL ([8]; subchronic, duration: 90 days, histopathology: nonneoplastic) was 500 mg/kg-day and the NOEC [9] was 17 mg/L. For the same compound, the LD50 ([10]; dermal) was over 1000 µg/piece and the LD50 ([10]; duration: 48 hours, oral, unspecified) was 462 µg/piece.
